# Measurements taken from ChEMBL document CHEMBL1201862, “PubChem BioAssay data set” (2004).
# Calls of active or inactive are those of the source.
# Legend:
# [1] = target: ORF 73 (Human herpesvirus 8, UniProt O40947); experiment: KSHV LANA DNA-binding disruption – biochemical, fluorescence polarization, cherry-picked samples, dose response (AID 504725); parameters: species or system Human gammaherpesvirus 8;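 note: fluorescence polarization of a labeled DNA duplex reporting LANA DNA binding; potency is for inhibitors that block LANA binding to the DNA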
# [2] = target: T1, Exodeoxyribonuclease V (Escherichia coli (strain K12), UniProt P04993+P07648+P08394); experiment: RecBCD inhibition via phage-restricted bacterial growth – absorbance, V66 E. coli, mutant T4 phage, counter-screen for AddAB inhibitor project, dose response (AID 492957); type: functional, cell-based, Escherichia coli str. K-12 substr. MG1655
# T1 sequence (P04993 whole entry): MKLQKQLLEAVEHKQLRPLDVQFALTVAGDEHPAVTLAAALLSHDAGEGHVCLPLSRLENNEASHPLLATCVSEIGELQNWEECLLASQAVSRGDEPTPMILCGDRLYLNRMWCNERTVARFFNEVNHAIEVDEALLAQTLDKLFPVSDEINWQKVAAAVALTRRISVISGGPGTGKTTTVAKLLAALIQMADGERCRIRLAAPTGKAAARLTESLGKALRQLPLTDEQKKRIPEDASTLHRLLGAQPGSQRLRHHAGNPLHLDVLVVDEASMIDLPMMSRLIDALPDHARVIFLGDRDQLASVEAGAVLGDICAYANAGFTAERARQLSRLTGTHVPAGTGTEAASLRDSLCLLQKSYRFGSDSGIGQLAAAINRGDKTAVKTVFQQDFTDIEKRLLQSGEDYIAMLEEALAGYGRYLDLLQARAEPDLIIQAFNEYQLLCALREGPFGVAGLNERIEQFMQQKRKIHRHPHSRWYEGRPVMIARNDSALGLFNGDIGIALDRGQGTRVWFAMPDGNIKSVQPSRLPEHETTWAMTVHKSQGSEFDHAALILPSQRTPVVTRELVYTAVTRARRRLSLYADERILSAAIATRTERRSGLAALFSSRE
# T1 sequence (P07648 whole entry): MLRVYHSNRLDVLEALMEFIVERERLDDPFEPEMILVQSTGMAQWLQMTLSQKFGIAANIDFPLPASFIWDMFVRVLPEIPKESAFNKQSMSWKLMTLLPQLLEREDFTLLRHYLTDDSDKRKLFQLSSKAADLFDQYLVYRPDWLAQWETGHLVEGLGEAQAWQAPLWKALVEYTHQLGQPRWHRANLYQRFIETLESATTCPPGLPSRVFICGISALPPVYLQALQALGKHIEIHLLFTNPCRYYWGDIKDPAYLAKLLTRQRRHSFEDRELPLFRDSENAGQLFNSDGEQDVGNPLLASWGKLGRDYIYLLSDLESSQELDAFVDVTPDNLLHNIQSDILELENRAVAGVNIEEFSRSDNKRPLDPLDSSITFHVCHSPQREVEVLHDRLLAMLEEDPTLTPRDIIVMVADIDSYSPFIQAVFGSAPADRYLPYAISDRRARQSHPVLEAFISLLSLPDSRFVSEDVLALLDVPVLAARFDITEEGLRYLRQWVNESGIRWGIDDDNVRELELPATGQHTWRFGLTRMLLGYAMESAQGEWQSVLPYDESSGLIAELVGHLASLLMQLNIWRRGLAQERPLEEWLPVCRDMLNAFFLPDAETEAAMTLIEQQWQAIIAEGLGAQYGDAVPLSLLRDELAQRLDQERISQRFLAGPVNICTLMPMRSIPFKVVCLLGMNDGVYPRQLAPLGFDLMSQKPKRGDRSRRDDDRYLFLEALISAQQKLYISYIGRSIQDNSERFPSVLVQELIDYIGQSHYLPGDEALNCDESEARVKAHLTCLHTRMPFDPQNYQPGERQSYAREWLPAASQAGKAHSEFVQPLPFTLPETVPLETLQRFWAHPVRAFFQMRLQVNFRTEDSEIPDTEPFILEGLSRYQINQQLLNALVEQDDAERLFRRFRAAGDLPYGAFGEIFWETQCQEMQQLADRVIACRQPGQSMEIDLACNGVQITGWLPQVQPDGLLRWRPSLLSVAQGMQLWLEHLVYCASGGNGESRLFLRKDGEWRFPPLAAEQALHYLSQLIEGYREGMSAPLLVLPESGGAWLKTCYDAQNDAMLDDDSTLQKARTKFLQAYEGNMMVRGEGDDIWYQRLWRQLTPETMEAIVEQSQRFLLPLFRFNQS
# T1 sequence (P08394 whole entry): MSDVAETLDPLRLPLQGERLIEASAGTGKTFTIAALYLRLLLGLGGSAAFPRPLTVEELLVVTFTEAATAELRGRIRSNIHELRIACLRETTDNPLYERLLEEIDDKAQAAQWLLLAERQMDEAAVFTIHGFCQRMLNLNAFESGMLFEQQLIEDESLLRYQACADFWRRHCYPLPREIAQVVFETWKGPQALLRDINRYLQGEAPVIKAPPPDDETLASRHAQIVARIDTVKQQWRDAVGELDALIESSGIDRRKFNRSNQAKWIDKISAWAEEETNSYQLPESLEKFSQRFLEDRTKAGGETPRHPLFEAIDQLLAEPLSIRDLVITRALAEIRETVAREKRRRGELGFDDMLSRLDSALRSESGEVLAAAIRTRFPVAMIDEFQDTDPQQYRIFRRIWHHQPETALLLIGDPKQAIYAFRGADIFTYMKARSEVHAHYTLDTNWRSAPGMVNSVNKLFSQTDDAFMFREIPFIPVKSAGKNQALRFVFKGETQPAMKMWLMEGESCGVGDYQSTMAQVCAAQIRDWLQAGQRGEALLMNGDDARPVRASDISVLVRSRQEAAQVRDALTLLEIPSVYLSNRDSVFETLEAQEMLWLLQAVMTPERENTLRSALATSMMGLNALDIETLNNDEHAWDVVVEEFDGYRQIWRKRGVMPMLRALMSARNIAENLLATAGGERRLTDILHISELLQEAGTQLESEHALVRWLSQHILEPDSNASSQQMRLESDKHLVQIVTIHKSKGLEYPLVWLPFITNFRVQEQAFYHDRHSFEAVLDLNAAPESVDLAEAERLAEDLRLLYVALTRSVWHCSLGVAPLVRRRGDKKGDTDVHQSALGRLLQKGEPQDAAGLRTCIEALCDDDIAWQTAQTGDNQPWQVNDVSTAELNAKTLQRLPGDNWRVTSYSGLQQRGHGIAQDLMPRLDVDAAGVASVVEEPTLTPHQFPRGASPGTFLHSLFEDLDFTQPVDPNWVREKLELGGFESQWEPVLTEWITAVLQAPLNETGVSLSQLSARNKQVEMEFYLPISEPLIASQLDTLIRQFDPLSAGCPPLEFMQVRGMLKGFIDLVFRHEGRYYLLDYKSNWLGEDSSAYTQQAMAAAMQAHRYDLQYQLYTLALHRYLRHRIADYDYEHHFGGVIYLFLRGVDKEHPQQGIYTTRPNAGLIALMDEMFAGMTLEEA
# [3] = test system: BJ; experiment: growth inhibition of engineered Ras-driven BJ cells – cell-based, alamar blue fluorescence, cherrypicked samples, dose response (AID 2631); type: functional; conditions: Homo sapiens;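 note: confirmatory dose-response assay in RAS-dependent BJ fibroblasts engineered with TERT, LT and ST, with cytotoxicity read by fluorescence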
# [4] = target: Peroxisome proliferator-activated receptor gamma/Nuclear receptor coactivator 2 (Homo sapiens, UniProt P37231); experiment: TR-FRET dose response biochemical High Throughput Screening assay for agonists of the steroid receptor coactivator 2 (SRC-2) recruitment by the peroxisome proliferator-activated receptor gamma (PPAR gamma): non-selective agonists. [Related pubchem assays: 1297, 1032 ]; type: functional
# Peroxisome proliferator-activated receptor gamma/Nuclear receptor coactivator 2, sequence (P37231 whole entry): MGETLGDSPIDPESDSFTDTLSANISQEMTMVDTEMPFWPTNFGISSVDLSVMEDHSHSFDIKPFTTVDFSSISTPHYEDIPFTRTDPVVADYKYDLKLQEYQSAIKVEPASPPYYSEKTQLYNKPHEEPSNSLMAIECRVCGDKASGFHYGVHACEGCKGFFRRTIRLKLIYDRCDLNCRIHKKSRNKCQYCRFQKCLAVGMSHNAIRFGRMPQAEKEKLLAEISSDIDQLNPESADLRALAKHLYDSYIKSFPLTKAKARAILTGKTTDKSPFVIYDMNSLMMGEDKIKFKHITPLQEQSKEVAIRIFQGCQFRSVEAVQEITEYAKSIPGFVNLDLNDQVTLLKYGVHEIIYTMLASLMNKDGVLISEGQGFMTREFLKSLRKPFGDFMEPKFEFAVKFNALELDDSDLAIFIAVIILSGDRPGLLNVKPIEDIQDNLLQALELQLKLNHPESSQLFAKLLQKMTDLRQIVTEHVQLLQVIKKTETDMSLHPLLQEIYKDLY
# Peroxisome proliferator-activated receptor gamma/Nuclear receptor coactivator 2, sequence (Q15596 whole entry, further chain): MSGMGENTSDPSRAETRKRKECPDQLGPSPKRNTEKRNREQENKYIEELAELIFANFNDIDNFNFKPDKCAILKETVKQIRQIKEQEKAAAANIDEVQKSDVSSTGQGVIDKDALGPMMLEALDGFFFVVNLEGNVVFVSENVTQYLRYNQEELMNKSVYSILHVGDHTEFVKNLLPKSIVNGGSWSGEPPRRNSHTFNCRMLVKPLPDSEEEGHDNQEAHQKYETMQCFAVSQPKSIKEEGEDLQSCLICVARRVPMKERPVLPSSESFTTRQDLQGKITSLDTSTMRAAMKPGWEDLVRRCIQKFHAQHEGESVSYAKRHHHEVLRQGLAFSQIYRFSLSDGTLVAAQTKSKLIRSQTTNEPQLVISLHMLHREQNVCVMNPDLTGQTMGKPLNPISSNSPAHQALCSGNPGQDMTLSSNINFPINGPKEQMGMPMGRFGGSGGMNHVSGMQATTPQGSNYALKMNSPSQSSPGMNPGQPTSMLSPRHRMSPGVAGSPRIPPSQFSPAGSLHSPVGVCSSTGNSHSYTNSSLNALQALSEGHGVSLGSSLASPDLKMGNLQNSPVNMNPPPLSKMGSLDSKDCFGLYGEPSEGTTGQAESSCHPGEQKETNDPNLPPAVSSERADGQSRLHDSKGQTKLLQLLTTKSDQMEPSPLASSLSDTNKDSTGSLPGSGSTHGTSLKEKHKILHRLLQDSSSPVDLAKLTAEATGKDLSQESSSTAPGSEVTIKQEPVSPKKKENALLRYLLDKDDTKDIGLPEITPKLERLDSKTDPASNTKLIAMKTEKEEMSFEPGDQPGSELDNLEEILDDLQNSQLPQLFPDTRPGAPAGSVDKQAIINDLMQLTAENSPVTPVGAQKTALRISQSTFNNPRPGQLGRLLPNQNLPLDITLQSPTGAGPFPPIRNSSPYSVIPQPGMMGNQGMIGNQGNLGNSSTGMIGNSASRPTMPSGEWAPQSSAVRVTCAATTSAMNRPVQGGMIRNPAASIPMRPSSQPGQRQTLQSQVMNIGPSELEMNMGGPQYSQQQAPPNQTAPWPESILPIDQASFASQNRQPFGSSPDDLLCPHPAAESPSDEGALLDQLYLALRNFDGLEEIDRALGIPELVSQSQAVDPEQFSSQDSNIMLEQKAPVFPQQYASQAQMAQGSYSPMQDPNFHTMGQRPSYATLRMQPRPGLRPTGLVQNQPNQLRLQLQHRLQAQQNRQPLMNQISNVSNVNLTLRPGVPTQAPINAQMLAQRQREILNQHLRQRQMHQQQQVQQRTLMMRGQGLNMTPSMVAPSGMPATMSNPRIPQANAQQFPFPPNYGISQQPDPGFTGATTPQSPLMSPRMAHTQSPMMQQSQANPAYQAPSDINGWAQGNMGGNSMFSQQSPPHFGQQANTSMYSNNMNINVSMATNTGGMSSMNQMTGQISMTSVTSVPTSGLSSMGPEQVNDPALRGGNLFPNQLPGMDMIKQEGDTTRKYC
# ORF 73, sequence (O40947 whole entry): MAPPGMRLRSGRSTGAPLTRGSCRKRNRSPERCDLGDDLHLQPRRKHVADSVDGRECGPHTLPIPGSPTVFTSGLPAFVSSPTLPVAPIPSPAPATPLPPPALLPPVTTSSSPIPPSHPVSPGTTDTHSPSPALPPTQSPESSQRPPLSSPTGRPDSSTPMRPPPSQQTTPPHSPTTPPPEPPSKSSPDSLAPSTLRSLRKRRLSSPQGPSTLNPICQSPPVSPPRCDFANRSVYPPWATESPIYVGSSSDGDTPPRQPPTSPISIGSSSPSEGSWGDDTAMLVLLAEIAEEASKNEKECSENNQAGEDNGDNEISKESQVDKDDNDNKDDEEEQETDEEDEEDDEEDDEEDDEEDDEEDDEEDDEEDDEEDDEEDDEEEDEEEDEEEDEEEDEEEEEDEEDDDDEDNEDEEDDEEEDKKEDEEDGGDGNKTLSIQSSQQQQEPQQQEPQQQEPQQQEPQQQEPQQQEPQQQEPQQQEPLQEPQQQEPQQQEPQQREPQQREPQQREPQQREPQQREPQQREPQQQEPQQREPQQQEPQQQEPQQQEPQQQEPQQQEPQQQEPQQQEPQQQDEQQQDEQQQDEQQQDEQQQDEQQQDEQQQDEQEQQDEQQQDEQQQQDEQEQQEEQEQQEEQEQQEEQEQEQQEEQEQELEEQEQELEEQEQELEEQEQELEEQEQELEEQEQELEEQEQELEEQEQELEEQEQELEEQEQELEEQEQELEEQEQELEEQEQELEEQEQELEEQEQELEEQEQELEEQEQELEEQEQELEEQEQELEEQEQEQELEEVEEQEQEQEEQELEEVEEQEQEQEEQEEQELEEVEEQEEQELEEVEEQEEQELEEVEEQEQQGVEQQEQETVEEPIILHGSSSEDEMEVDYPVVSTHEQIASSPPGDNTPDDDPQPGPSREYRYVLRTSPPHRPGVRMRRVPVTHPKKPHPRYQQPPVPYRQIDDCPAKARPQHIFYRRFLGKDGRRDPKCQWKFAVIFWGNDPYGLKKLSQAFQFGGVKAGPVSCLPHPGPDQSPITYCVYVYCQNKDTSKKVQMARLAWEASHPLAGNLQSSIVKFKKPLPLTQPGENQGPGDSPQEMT
smiles,measurement,setting,value
COc1cc(-c2ccc(Nc3ccccc3C(=O)O)c(OC)c2)ccc1Nc1ccccc1C(=O)O,AC50,[1],78.9 µM (active)
Cc1ccc2nc(/C(C#N)=C\c3ccc([N+](=O)[O-])o3)[nH]c2c1,IC50,[2],> 119 µM (inactive)
Nc1ccc2c(c1)C(=O)C(=O)c1ccccc1-2,EC50,[3],2.8 µM (active)
same,EC50,[4],12.1 µM (not active)
CCCC(=O)NC(c1ccccc1OC)c1ccc2cccnc2c1O (stereo not given),IC50,[2],> 119 µM (inactive)
